Drawing on ChEMBL document CHEMBL1201862, “PubChem BioAssay data set” (2004), this text covers IC50, EC50 and AC50 for four molecules.

One test concerns the target Estrogen receptor beta (Homo sapiens, UniProt Q92731).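 Note: recombinant ER-beta bound to coactivator SRC1 peptide in presence of estradiol agonist; inhibitors block coactivator peptide binding and lower the FRET signal.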
The nature of test [1]: Luminescence Cell-Based Dose Response HTS to Identify Inhibitors of 5'UTR Stem-Loop Driven Prion Protein mRNA Translation in H4 Neuroglioblastoma Cells. [Related pubchem assays: 1827 (Project Summary), 1813 (Primary HTS)]. Format: functional.
Test [2] can be described thus: cytotoxicity toward NIH3T3 fibroblasts, dose response, counter-screen, cell-based, ATP luminescence, mouse fibroblasts (AID 2010).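 Note: cells exposed to compound for about 90 hours before reading.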 Format: functional. For orientation: Counterscreens check selectivity or assay interference.
In the next test the target is T1, Protein RecA (Mycobacterium tuberculosis, UniProt P9WHJ3).
T1 sequence (P9WHJ3 whole entry): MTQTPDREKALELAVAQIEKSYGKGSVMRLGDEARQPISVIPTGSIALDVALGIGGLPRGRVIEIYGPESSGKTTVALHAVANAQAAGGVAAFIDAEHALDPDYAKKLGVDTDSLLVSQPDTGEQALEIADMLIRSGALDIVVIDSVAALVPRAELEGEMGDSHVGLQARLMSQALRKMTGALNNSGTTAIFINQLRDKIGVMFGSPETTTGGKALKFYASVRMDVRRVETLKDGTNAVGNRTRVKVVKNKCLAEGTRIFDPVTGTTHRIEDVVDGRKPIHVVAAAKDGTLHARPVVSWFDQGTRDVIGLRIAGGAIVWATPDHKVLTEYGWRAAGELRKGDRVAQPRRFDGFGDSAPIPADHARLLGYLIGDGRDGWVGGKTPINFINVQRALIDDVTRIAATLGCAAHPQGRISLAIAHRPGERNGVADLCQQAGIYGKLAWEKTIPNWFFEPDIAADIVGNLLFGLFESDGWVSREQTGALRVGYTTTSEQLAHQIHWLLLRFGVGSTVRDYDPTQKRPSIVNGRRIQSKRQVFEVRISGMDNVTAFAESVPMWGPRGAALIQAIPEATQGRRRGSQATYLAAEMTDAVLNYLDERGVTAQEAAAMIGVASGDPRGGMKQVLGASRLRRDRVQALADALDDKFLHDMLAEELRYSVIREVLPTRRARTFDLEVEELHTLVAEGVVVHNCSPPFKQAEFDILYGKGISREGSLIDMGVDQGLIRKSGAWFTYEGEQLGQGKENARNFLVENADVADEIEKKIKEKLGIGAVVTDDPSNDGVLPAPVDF
Kind of test: Fluorescence Cell-Free Homogeneous Dose Retest to Identify Inhibitors of RecA-Intein Splicing Activity. [Related pubchem assays (depositor defined):AID2097, AID2223, AID489010, AID492950]. Format: functional.

Test [3] can be described thus: inhibitors of intracellular T. cruzi replication, confirmation, NIH3T3 host cells, beta-gal luminescence (AID 2044).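 Note: intracellular parasites grown in NIH/3T3 mouse fibroblasts as host cells; luminescent beta-galactosidase reporter signal from transgenic T. cruzi replicating inside host cells; inhibitors lower the luminescence signal.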 Format: functional, cell-based.
In test [4] the target is T2, RNA-binding protein pos-1 (Caenorhabditis elegans, UniProt G5EF15).
T2 sequence (G5EF15 whole entry): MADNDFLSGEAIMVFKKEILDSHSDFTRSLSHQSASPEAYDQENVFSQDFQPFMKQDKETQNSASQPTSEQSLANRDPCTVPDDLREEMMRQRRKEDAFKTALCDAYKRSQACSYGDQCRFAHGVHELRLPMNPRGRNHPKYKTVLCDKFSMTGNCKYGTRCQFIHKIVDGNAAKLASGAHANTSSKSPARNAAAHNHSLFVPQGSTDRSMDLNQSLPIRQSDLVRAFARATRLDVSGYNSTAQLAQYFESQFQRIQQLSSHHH
Kind of test: inhibitors of POS-1/mex-3 RNA binding, dose response, biochemical, fluorescence polarization (AID 1964).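 Note: purified POS-1 fused to maltose binding protein made in E. coli; potency of compounds blocking POS-1 binding to fluorescent RNA.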

The target in test [5] is Induced myeloid leukemia cell differentiation protein Mcl-1 (Homo sapiens, UniProt Q07820). Format: functional.
The target of test [6] is T3, Zinc finger protein mex-5 (Caenorhabditis elegans, UniProt Q9XUB2).
T3 sequence (Q9XUB2 whole entry): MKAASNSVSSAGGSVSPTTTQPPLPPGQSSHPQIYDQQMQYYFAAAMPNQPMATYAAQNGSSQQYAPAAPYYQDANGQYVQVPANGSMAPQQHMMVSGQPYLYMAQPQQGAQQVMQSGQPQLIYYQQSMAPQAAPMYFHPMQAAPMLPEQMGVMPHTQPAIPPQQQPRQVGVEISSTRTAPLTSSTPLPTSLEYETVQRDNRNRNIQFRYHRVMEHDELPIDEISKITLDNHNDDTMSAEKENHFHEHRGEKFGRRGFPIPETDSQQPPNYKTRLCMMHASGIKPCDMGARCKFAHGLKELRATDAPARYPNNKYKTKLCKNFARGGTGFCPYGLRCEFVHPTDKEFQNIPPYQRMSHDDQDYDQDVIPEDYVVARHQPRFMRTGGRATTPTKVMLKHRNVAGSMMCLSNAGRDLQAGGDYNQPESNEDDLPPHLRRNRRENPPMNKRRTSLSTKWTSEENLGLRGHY
Kind of test: MEX-5/TCR-2 RNA interaction inhibitors, dose response, biochemical, C. elegans, fluorescence polarization (AID 1960).

In test [7] the target is T4, Replicative DNA helicase DnaB (Mycobacterium tuberculosis, UniProt P9WMR3).
T4 sequence (P9WMR3 whole entry): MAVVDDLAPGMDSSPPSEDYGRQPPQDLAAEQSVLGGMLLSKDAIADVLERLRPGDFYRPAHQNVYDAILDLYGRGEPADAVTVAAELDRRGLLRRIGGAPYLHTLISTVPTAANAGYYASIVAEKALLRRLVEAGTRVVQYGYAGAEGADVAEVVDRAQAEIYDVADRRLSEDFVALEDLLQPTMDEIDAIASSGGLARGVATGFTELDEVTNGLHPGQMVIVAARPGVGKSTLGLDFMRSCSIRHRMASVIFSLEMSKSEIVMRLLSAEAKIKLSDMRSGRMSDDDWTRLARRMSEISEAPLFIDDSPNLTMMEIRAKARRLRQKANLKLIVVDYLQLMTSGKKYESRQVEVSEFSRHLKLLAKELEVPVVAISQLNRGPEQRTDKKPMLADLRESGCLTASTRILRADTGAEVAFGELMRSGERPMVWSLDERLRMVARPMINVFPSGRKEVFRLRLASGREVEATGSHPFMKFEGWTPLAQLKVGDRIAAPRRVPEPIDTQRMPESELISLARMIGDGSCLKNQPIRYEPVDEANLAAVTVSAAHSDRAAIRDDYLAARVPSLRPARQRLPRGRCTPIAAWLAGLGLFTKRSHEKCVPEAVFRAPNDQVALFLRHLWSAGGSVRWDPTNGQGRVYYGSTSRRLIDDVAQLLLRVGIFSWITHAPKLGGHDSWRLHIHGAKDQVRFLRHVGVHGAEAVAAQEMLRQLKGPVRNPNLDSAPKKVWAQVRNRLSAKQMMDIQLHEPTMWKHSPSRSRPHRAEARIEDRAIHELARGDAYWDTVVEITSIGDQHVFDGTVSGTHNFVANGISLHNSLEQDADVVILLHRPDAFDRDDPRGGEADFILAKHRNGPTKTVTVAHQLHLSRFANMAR
The test is described as follows: DnaB intein splicing inhibitors, dose response, biochemical, cell-free fluorescence (AID 449749). Format: functional.

A short description of test [8]: inhibitors of firefly luciferase expression or activity, dose response, H4 neuroglioma cells, luminescence (AID 1990). Format: functional, cell-based.
Test [9] in a line: inhibitors of SNCA 5'UTR-driven reporter translation, confirmation, H4 neuroglioma cells, luminescence (AID 1988). Format: functional, cell-based.
Test [10] deals with T5, Mannose-6-phosphate isomerase (Homo sapiens, UniProt P34949).
T5 sequence (P34949 whole entry): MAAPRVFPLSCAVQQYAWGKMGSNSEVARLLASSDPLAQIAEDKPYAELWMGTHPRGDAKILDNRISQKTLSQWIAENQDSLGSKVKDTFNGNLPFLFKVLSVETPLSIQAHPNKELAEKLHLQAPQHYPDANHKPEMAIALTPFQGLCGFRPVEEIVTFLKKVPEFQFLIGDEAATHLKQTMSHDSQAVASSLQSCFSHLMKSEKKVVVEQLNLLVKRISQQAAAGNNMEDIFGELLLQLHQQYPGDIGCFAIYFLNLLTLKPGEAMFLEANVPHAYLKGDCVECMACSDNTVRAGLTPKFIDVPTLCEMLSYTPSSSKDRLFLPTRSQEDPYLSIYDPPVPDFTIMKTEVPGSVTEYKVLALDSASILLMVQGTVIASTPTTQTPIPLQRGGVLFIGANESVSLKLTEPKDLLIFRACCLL
The test is described as follows: human PMI inhibitors, high substrate, primary screen, biochemical, fluorescence intensity, high mannose 6-phosphate (AID 1220).

By IC50 is commonly meant the midpoint of a concentration-inhibition curve. For orientation: EC50 means the concentration giving half of the maximal effect. What is called AC50 is the concentration at which the activity in the assay is half-maximal.

Active and inactive are the calls of the source. Cut-off read from the data, not from the text of the source, for most assays here: actives have a measured EC50 and inactives only a lower limit.

Estrogen receptor beta, sequence (Q92731 whole entry): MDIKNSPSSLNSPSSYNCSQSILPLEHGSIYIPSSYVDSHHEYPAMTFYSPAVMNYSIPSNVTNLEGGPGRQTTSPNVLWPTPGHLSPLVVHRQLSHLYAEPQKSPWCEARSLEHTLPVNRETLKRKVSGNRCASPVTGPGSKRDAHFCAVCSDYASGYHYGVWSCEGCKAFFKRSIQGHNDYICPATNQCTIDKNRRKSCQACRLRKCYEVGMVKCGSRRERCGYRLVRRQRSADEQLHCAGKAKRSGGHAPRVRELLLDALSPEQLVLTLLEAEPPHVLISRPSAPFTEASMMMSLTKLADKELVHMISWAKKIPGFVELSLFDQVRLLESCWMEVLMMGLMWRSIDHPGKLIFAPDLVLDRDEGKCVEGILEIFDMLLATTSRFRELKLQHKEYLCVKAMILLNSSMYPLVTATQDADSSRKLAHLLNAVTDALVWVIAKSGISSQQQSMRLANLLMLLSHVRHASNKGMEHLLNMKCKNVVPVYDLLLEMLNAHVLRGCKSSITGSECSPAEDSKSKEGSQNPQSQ
Induced myeloid leukemia cell differentiation protein Mcl-1, sequence (Q07820 whole entry): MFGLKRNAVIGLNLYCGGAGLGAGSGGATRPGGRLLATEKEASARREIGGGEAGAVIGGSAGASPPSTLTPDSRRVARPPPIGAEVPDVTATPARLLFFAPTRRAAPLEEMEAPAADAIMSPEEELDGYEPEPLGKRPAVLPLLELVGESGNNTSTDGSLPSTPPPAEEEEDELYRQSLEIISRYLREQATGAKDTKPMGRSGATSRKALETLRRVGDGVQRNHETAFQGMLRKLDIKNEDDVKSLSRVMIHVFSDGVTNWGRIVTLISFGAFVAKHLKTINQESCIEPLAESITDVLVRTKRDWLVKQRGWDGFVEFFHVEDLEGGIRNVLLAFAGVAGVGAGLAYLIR

Regarding `Cc1cc(S(=O)(=O)N(Cc2ccc(F)cc2)CC2CCCO2)ccc1-n1cnnn1` (configuration not stated), at Estrogen receptor beta, the IC50 is given as > 50 µM (not active).

Consider `CN1C=C/C(=C\c2cc[n+](C)c3ccccc23)c2ccccc21`, for which the EC50 was 8.89 µM (active) in [1]; > 60 µM (not active) in [2]; 1.48 µM (active) at Protein RecA; < 0.1 µM (active) in [3]; < 0.004 µM (active) in “cells”; 65.7 µM (active) in [4]. The values for the EC50 in [6], in test [8] and in test [9] were 40 µM (inconclusive), 9.17 µM (active) and 6.93 µM (active), respectively. Also, the IC50 is 13 µM (active) in [5] and > 50 µM (not active) in [10]. In addition, the AC50 in [7] was 121 µM (active).

As to `CCOC(=O)C1CCCN(Cc2ccc(-c3ccccc3)cc2)C1` (configuration not stated), the half-maximal effective concentration (EC50) in test [2] was > 60 µM (not active); in test [3], < 0.1 µM (active); in the test “cells”, 0.429 µM (active).

Turning to `O=C(CSc1nnc(-c2cccnc2)n1-c1ccccc1)Nc1ccc2c(c1)OCO2`, the half-maximal inhibitory concentration (IC50) at Estrogen receptor beta is on record as > 50 µM (not active).
